Experimental data reported in US11753407B2, “Compounds for treating spinal muscular atrophy” (PTC Therapeutics, Inc., priority 2012, dated 2023).

Legend:
[1] = tested on: Smn protein in SMA patient fibroblast cells (GM03813); test: Smn protein assay in cultured cells (SMN HTRF); type: cell-based, human; conditions: SMA patient fibroblast cells, 48 hours; for EC1.5x for Smn protein expression: 7-point concentration curve, SMN HTRF, concentration producing 1.5 times Smn protein vs DMSO vehicle control; for maximum fold (Fold) increase of Smn protein: 7-point concentration data, fold relative to vehicle control
Method in brief: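 Patient-derived SMA fibroblasts are plated, given compound for 48 h, then lysed in RIPA buffer with protease inhibitors. Lysate Smn is detected by an anti-SMN d2/kryptate HTRF pair incubated overnight. The normalized ΔF is divided by the vehicle ΔF to give fold change, from which EC1.5× and maximum fold are taken.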

[2] = tested on: SMN2 minigene mRNA (SMN2-A minigene) in HEK293H cells; test: SMN2 minigene mRNA splicing RT-qPCR assay in cultured cells; type: cell-based, human; conditions: Homo sapiens, HEK293-H; concentration increasing full length SMN2 mRNA 1.5-fold relative to vehicle-treated cells; HEK293H cells with SMN2-A minigene, 24 hours, 7-point concentration data; read-out: EC1.5x for production of full length SMN2 mRNA
Method in brief: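 Cells are seeded, left to attach 4-6 h, then dosed with test compound across seven concentrations and incubated 24 h. Lysates undergo RT-qPCR with primers/probe specific to the exon 7-containing minigene transcript, co-amplified with GAPDH. Fold change over vehicle is calculated, and EC1.5× marks the 1.5-fold point.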

**Q.** Which results are given for `Cc1cn2cc(-c3cc(=O)n4cc(N5CCN(C(C)C)CC5)ccc4n3)cc(Cl)c2n1` [Compound 374, 2-(8-chloro-2-methylimidazo[1,2-a]pyridin-6-yl)-7-[4-(propan-2-yl)piperazin-1-yl]-4H-pyrido[1,2-a]pyrimidin-4-one]?
**A.** melting point: 287 to 292 °C; EC1.5x for Smn protein expression [1]: **** (an EC1.5x≤0.3 μM is indicated by four stars (****)); maximum fold (Fold) increase of Smn protein [1]: ***** (a fold increase >1.65 is indicated by five stars (*****)); EC (1.5-fold increase) [2]: < 0.1 µM

**Q.** Which melting point does the source give for `Cc1cn2cc(-c3ccc4nc(C5=CCNCC5)cc(=O)n4c3)ccc2n1` [Compound 375, 7-(2-methylimidazo[1,2-a]pyridin-6-yl)-2-(1,2,3,6-tetrahydropyridin-4-yl)-4H-pyrido[1,2-a]pyrimidin-4-one] here?
**A.** 197 to 201 °C

**Q.** What about the “EC1.5x for Smn protein expression” value [1] of the same compound?
**A.** **** (an EC1.5x≤0.3 μM is indicated by four stars (****))

**Q.** And the “maximum fold (Fold) increase of Smn protein” value (“maximum fold (Fold) increase” for short) [1]?
**A.** **** (a fold increase between >1.5 and ≤1.65 is indicated by four stars (****))

**Q.** And the EC (1.5-fold increase) [2]?
**A.** < 0.1 µM

**Q.** Which melting point does the source give for `Cc1cn2cc(-c3ccc4nc(C5=CCN(C)CC5)cc(=O)n4c3)ccc2n1` [Compound 376, 7-(2-methylimidazo[1,2-a]pyridin-6-yl)-2-(1-methyl-1,2,3,6-tetrahydropyridin-4-yl)-4H-pyrido[1,2-a]pyrimidin-4-one] here?
**A.** 203 to 207 °C

**Q.** What about the “EC1.5x for Smn protein expression” value [1] of the same compound?
**A.** *** (an EC1.5× between >0.3 μM and ≤1 μM is indicated by three stars (***))

**Q.** And the “maximum fold (Fold) increase” value [1]?
**A.** *** (a fold increase between >1.35 and ≤1.5 is indicated by three stars (***))

**Q.** What about the EC (1.5-fold increase) [2] of the same compound?
**A.** < 0.1 µM

**Q.** Which melting point does the source give for `COc1ccc(-c2ccc3nc(C4=CCN(C)CC4)cc(=O)n3c2)cc1OC` [Compound 377, 7-(3,4-dimethoxyphenyl)-2-(1-methyl-1,2,3,6-tetrahydropyridin-4-yl)-4H-pyrido[1,2-a]pyrimidin-4-one] here?
**A.** 149 to 152 °C

**Q.** And the “EC1.5x for Smn protein expression” value [1]?
**A.** ** (an EC1.5× between >1 μM and ≤3 μM is indicated by two stars (**))

**Q.** And the “maximum fold (Fold) increase” value [1]?
**A.** **** (a fold increase between >1.5 and ≤1.65 is indicated by four stars (****))

**Q.** And the EC (1.5-fold increase) [2]?
**A.** 0.3 to 1 µM

**Q.** With `CCCN1CC=C(c2cc(C)c3nc(-c4ccc(OC)c(OC)c4)cc(=O)n3c2)CC1` [Compound 378, 2-(3,4-dimethoxyphenyl)-9-methyl-7-(1-propyl-1,2,3,6-tetrahydropyridin-4-yl)-4H-pyrido[1,2-a]pyrimidin-4-one] as the compound, how does the melting point read?
**A.** 171 to 177 °C

**Q.** And the “EC1.5x for Smn protein expression” value [1]?
**A.** ** (an EC1.5× between >1 μM and ≤3 μM is indicated by two stars (**))

**Q.** What about the “maximum fold (Fold) increase” value [1] of the same compound?
**A.** **** (a fold increase between >1.5 and ≤1.65 is indicated by four stars (****))

**Q.** What about the EC (1.5-fold increase) [2] of the same compound?
**A.** < 0.1 µM

**Q.** Which results are given for `COc1ccc(-c2cc(=O)n3cc(C4=CCN(C5CCC5)CC4)cc(C)c3n2)cc1OC` [Compound 379, 7-(1-cyclobutyl-1,2,3,6-tetrahydropyridin-4-yl)-2-(3,4-dimethoxyphenyl)-9-methyl-4H-pyrido[1,2-a]pyrimidin-4-one]?
**A.** melting point: 167 to 178 °C; maximum fold (Fold) increase of Smn protein [1]: *** (a fold increase between >1.35 and ≤1.5 is indicated by three stars (***)); EC (1.5-fold increase) [2]: 0.1 to 0.3 µM

**Q.** With `Cc1nc2ccc(-c3cc(=O)n4cc(N5CCC(N)CC5)ccc4n3)cc2s1` [Compound 381, 7-(4-aminopiperidin-1-yl)-2-(2-methyl-1,3-benzothiazol-6-yl)-4H-pyrido[1,2-a]pyrimidin-4-one] as the compound, how does the melting point read?
**A.** 190 to 194 °C

**Q.** What about the “EC1.5x for Smn protein expression” value [1] of the same compound?
**A.** * (An EC1.5× for Smn protein expression between >3 μM and ≤10 μM is indicated by one star (*))

**Q.** And the “maximum fold (Fold) increase” value [1]?
**A.** *** (a fold increase between >1.35 and ≤1.5 is indicated by three stars (***))

**Q.** What about the EC (1.5-fold increase) [2] of the same compound?
**A.** 0.1 to 0.3 µM
